Results on 47 compounds are retold here after ChEMBL document CHEMBL3301464, “MMV Malaria Box anti-babesial screening”.

Test [1] can be described thus: (§1) MMV: Anti-babesial activity assay. Parasite pRBCs at 1% parasitemia were cultivated in 100 ul with 96-well plates at 2.5% and 5% hematocrits. The parasites were cultivated in triplicate for 4 days without replacement of the medium for each concentration of the compound. Type of test: functional, Babesia bovis.
Test [2] in a line: as §1. Type of test: functional, Babesia equi.
Test [3] is described as follows: as §1. Type of test: functional, Babesia bigemina.
Test [4] in a line: as §1. Format: functional, Babesia caballi.

By IC50 is commonly meant the midpoint of a concentration-inhibition curve. Higher therefore signals weaker potency in that assay.

Bounds are passed on as bounds.

For the compound `CN(C)c1ccc(C=Cc2nc(=O)c3ccccc3o2)cc1`, the concentration for half-maximal inhibition (IC50) turned out to be 16.2 µM in test [1], 11.5 µM in test [2], 16.8 µM in test [3] and 14.6 µM in test [4].
For `O=C(NC1CCCC1)c1ccc(N2CCC(NCc3cccc(C(F)(F)F)c3)CC2)cc1`, the half-inhibitory concentration (IC50) was found to be 14 µM in test [1], 10 µM in test [2], 25 µM in test [3] and 13.4 µM in test [4].
On the same counts, the results for `COc1ccc(-c2cc3c(SCC(=O)Nc4cc(C(F)(F)F)ccc4Cl)nccn3n2)cc1` are greater than 25 µM, 25 µM, 17.1 µM and 9.61 µM.
In the same order, the values of `CC1CCN(Cc2ccc(NC(=O)c3cc4ccc5cccnc5c4[nH]3)cc2)CC1` are 9.55 µM, 6.41 µM, 15.3 µM and 13.1 µM.
In the same order, the values of `COc1ccc(-c2nc(N3CCN(C(=O)C4CCCCC4)CC3)c3c4c(sc3n2)CCCC4)cc1` are 1.07 µM, 8.36 µM, 1 µM and 11.9 µM.
`Oc1ccc2ccccc2c1CNc1nc2ccccc2[nH]1`: the IC50 in test [1] stood at 6.81 µM; in test [2], 4.37 µM; in test [3] it was 10 µM; in test [4], 3.04 µM.
On to `CCc1c(C)c(=N)c2ccccc2n1C`, for which the IC50 is 18.4 µM in test [1], 7.23 µM in test [2], 3.42 µM in test [3] and 0.26 µM in test [4].
For `CCOc1ccc(N2C(N)=NC(N)=NC2(C)C)cc1`, the IC50 was 15.2 µM in test [1], 14 µM in test [2], 5.9 µM in test [3] and 2.95 µM in test [4].
On to `O=C(Nc1ccc(N2CCCCC2)c(Cl)c1)c1ccc(Br)o1`, for which the IC50 in test [1] amounted to 11.9 µM; in test [2] it was 18.7 µM; in test [3], 17.7 µM; in test [4], 13.9 µM.
In the same order, the values of `COc1ccc(-c2cc(=O)oc3c4c(ccc23)OCN(Cc2ccc(F)cc2)C4)cc1` are 2.95 µM, 14.8 µM, 0.29 µM and 0.071 µM.
On the same counts, the results for `CCOc1ccc2c(c1)CN(Cc1ccc(Cl)cc1)CO2` are 0.26 µM, 7.54 µM, 13.3 µM and 10.7 µM.
On the same counts, the results for `CCOc1ccccc1CN1CCc2nc3cc(C(C)(C)C)nn3c(O)c2C1` are 20.2 µM, 10.1 µM, 9.87 µM and 0.068 µM.
For `CCCCOc1ccc(C(=O)Nc2cc(C)on2)cc1`, the IC50 in test [1] turned out to be 21.2 µM; in test [2], 6.99 µM; in test [3], 25 µM; in test [4] it was 0.083 µM.
In the case of `CCN(CC)c1cc(C)c2cc(NC(=O)c3cccc(OC)c3)ccc2n1`, the half-inhibitory concentration (IC50) in test [1] worked out at 10 µM; in test [2], 0.46 µM; in test [3], 8.99 µM; in test [4], 9.33 µM.
On the same counts, the results for `COC(=O)c1ccc(Cl)c2c1C1C=CCC1C(c1cccc3ccccc13)N2` (stereo not drawn) are 15.7 µM, 17.8 µM, 10 µM and 12 µM.
As for `Cc1ccc(Cl)cc1N1CCN(CCCNC(=O)C2CCN(c3nc4ccccc4[nH]3)CC2)CC1`, the half-inhibitory concentration (IC50) was found to be 3.03 µM in test [1], 4.77 µM in test [2], 2.4 µM in test [3] and 1 µM in test [4].
In the same order, the values of `CCOC(=O)c1cnc2c(C)cccc2c1Nc1ccc(C(C)=O)cc1` are 19.6 µM, 12.6 µM, greater than 25 µM and 6.08 µM.
Turning to `N=c1c2ccccc2nnn1-c1cccc(C(F)(F)F)c1`, the 50% inhibitory concentration (IC50) in test [1] stood at 15 µM; in test [2] it was 9.18 µM; in test [3], 19.1 µM; in test [4], 18.1 µM.
On to `CCCCCCOC(=O)C1=C(C)NC(=O)NC1c1ccccc1F` (stereo not drawn), for which the half-maximal inhibitory concentration (IC50) in test [1] was greater than 25 µM; in test [2], 15.2 µM; in test [3] it was 14.8 µM; in test [4] it was 4.9 µM.
In the same order, the values of `COc1cc(OC)cc(N2C(=O)N(Cc3ccc(C(C)(C)C)cc3)c3ccccc3S2(=O)=O)c1` are 1 µM, 13.3 µM, 0.19 µM and 7.54 µM.
For the compound `Fc1ccc2[nH]c3c(NCCCN4CCOCC4)ncnc3c2c1`, the IC50 was determined as 19.7 µM in test [1], 2.88 µM in test [2], 17.1 µM in test [3] and 14.7 µM in test [4].
In the same order, the values of `COc1ccc2nc(C)cc(Nc3cccc(O)c3)c2c1` are 13.4 µM, 4.19 µM, 25 µM and greater than 25 µM.
As to `CCOc1ccc(-n2cc(-c3ccccc3)c3c(SCc4cc(C)ccc4C)ncnc32)cc1`, the IC50 in test [1] amounted to 14.6 µM; in test [2], 13.9 µM; in test [3], 10.7 µM; in test [4] it was 16.5 µM.
Turning to `CN(C)c1ccc(-c2nc3cc(N)ccc3[nH]2)cc1`, the half-maximal inhibitory concentration (IC50) in test [1] amounted to 0.083 µM; in test [2], 3.61 µM; in test [3], 1.04 µM; in test [4], 7.59 µM.
`Cc1ccc2cc3c(N)c4c(C)ccc(C)c4nc3nc2c1`: the IC50 in test [1] came out at 2.63 µM; in test [2], 4.52 µM; in test [3], 4.27 µM; in test [4] it was 7.26 µM.
On the same counts, the results for `CCC(C)NCC(O)(c1ccc(Cl)cc1)c1ccc(Cl)cc1` (stereo not drawn) are 25 µM, 7.67 µM, 1.9 µM and 2.96 µM.
On the same counts, the results for `COc1ccccc1CNC(=O)C1c2ccccc2C(=O)N(CC(C)C)C1c1cccs1` (stereo not drawn) are 8.25 µM, 10 µM, 10 µM and 16.8 µM.
In the same order, the values of `O=C(Nc1ccc(N2CCN(Cc3ccccc3)CC2)cc1)c1cccs1` are 1.87 µM, 3.32 µM, 8.47 µM and 0.08 µM.
For the compound `Cc1ccc(-c2cc(C(=O)Nc3ccc(S(=O)(=O)N4CCCCC4)cc3)[nH]n2)c(O)c1`, the IC50 in test [1] was greater than 25 µM; in test [2], 8.25 µM; in test [3], 2.45 µM; in test [4], 10 µM.
Turning to `CC(C)CNC(=O)c1c(N)n(CCc2ccccc2F)c2nc3ccccc3nc12`, the 50% inhibitory concentration (IC50) in test [1] was found to be 10 µM; in test [2], 13.3 µM; in test [3], 7.67 µM; in test [4], 1 µM.
On the same counts, the results for `COc1ccc(C2N(C)c3ccccc3N2C)cc1` are 4.77 µM, 7.89 µM, 2.16 µM and 4.6 µM.
Consider `CCN(CC)CCCNc1nc(-c2ccc(Cl)cc2)nc2ccccc12`, for which the IC50 in test [1] worked out at 0.73 µM; in test [2], 0.25 µM; in test [3], 2.16 µM; in test [4], 5.93 µM.
Consider `Oc1ccc(Cl)cc1CNc1nc2ccccc2[nH]1`, for which the half-maximal inhibitory concentration (IC50) in test [1] turned out to be 5.38 µM; in test [2], 4.77 µM; in test [3], 5.06 µM; in test [4], 8.03 µM.
In the case of `COc1ccc(C(=O)C2CC2c2ccc(Cl)cc2)cc1` (stereo not drawn), the IC50 in test [1] was 5.97 µM; in test [2], 16.1 µM; in test [3], 6.72 µM; in test [4], 14.6 µM.
Consider `COc1ccc(CNC2CCN(c3ccc(NC(=O)c4cccc(Cl)c4)cc3)CC2)cc1OC`, for which the IC50 in test [1] came to 0.1 µM; in test [2], 0.309 µM; in test [3], 0.85 µM; in test [4] it was 12.4 µM.
In the same order, the values of `Cc1cc(NC(=O)c2cccc(C(F)(F)F)c2)n(-c2nc(-c3ccc4c(c3)OCO4)cs2)n1` are 18 µM, 12.3 µM, 8.83 µM and 0.08 µM.
In the same order, the values of `COc1ccc(NC(=O)C2c3ccccc3C(=O)N(CC(C)C)C2c2cccs2)cc1` (stereo not drawn) are 12.6 µM, 8.02 µM, 17.3 µM and 9.09 µM.
On the same counts, the results for `CCOc1cc2c(cc1OCC)C(c1cc(Cl)ccc1O)NCC2` (stereo not drawn) are 1.06 µM, 1.4 µM, 10 µM and 0.33 µM.
As to `COc1ccc(C2c3ccc4ccccc4c3Oc3ncn(CCCn4ccnc4)c(=N)c32)cc1OC` (stereo not drawn), the IC50 in test [1] is 6.3 µM; in test [2] it was 5.68 µM; in test [3] it was 0.1 µM; in test [4], 0.41 µM.
In the same order, the values of `Cc1ccc2c(C)nc(Nc3nc(C)cc(-c4ccccc4)n3)nc2c1` are 16.8 µM, 14.4 µM, 7.95 µM and 4.13 µM.
On the same counts, the results for `COc1cc2cc(C(=O)Nc3ccccc3)c(N)nc2cc1OC` are 0.86 µM, 3.04 µM, 21.1 µM and 6.22 µM.
As for `CCC1(C)CC(CCNCc2ccccc2O)(c2ccc(C)cc2)CCO1` (stereo not drawn), the IC50 was found to be 14.1 µM in test [1], 0.61 µM in test [2], 16.8 µM in test [3] and 7.3 µM in test [4].
In the same order, the values of `c1ccc(Cn2c(N=Nc3c(Nc4ccccc4)ccc4ccccc34)nc3ccccc32)cc1` are 2.93 µM, 0.76 µM, 3.3 µM and 2.84 µM.
On the same counts, the results for `CCCCCCC(O)(c1ccc(F)cc1)C(CN1CCOCC1)c1ccccc1` (stereo not drawn) are 2.63 µM, 10 µM, 9.87 µM and 0.29 µM.
In the same order, the values of `Cc1sc(NC(=O)c2ccccc2)c(C(c2cccs2)N2CCN(c3ccccc3)CC2)c1C` (stereo not drawn) are 1.05 µM, 10.7 µM, 0.68 µM and 14.7 µM.
In the case of `CCCCNCC(O)(c1ccc(Cl)cc1)c1ccc(Cl)cc1`, the IC50 came to 15.5 µM in test [1], 1 µM in test [2], 0.078 µM in test [3] and 5.35 µM in test [4].
Take `CC(C)=CCN1CCC(C(=O)Nc2ccc(-c3nc4ccccc4[nH]3)cc2)CC1`: the 50% inhibitory concentration (IC50) was determined as 5.5 µM in test [1], 0.051 µM in test [2], 1.04 µM in test [3] and 17 µM in test [4].
